Here are results for 3 molecules from PMC10824666 (Nature Cancer, 2023).

Where two headings read alike, the source gives them in different places.

Holding throughout (assay): biochemical
Design in all cases: Eurofins DiscoverX kinase panel, competitive binding assay at 1 uM, percent of DMSO control
Common to all, as to conditions: competitive binding, percent of DMSO control

In one experiment the target is T1, EPHB3 (Homo sapiens, UniProt P54753).
T1 sequence (P54753 1-998): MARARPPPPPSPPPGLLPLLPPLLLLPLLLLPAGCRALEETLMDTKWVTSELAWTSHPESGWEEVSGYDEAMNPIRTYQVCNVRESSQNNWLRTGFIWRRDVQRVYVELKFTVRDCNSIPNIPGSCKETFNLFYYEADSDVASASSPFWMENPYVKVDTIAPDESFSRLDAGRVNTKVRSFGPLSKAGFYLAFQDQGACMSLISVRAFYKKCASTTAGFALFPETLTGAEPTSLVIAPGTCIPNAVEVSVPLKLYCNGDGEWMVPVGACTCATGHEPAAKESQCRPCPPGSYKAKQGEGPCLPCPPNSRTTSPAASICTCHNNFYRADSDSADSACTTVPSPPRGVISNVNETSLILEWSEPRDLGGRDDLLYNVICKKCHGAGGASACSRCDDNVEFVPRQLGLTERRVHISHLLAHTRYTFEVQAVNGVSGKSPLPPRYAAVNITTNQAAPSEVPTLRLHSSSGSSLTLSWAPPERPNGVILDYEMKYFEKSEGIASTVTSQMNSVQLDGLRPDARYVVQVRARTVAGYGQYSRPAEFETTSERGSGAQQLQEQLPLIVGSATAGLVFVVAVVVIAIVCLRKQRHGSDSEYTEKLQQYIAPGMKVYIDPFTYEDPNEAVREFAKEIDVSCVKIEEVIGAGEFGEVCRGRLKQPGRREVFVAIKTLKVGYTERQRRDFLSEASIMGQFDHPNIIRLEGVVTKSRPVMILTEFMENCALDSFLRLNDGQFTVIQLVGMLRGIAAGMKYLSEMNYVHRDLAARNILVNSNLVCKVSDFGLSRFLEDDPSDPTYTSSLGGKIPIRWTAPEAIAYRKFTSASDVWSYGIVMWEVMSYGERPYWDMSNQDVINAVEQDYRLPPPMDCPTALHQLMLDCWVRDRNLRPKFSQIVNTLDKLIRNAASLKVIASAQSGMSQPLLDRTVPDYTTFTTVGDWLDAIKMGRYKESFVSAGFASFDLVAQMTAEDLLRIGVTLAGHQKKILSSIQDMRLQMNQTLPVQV
In outline:
(§1)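 Competitive binding assay across a 96-kinase panel with KIF18A compounds at 1 µM; values given as percentage of control (POC), single experiment.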

In a further experiment the target is T2, ERK2 (Homo sapiens, UniProt P28482).
T2 construct: gene MAPK1
Put shortly:
as §1

The target in the next experiment is KDR (Homo sapiens, UniProt P35968). Put shortly: as §1
The next experiment concerns the target MAPK4 (Homo sapiens, UniProt P31152). In outline:
as §1

Another experiment has as its target PIM1 (Homo sapiens, UniProt P11309). Put shortly:
as §1

The target in the next experiment is T3, PKB α (Homo sapiens, UniProt P31749).
T3 construct: gene AKT1
In outline: as §1

In another experiment the target is T4, Tyk-2 (Homo sapiens, UniProt P29597).
T4 construct: gene TYK2
In outline: as §1

The mark [1] stands for this setting: read-out: Kinome Profiling performed by Eurofins DiscoverX / AM-0277, 1.0 µM / POC.
The mark [2] stands for this setting: read-out: Kinome Profiling performed by Eurofins DiscoverX / AM-1882, 1.0 µM / POC.
Setting [3] is: read-out: Kinome Profiling performed by Eurofins DiscoverX / AM-5308, 1.0 µM / POC.

MAPK4, sequence (P31152 whole entry): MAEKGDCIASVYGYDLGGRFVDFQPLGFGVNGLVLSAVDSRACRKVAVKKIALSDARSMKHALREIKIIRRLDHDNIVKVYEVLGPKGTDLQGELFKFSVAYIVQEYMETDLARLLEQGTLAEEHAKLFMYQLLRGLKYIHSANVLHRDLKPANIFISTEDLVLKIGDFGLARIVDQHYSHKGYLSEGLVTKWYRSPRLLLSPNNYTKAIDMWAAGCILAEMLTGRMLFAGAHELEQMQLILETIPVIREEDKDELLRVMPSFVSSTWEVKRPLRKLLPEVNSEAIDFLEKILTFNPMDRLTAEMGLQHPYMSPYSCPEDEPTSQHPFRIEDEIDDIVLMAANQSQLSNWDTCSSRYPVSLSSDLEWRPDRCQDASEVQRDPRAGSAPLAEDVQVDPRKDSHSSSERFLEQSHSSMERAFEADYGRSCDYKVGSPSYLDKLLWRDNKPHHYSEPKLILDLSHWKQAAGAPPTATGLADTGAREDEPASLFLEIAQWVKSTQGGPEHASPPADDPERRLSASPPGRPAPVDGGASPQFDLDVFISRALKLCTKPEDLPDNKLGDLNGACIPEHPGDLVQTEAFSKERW
PIM1, sequence (P11309 whole entry): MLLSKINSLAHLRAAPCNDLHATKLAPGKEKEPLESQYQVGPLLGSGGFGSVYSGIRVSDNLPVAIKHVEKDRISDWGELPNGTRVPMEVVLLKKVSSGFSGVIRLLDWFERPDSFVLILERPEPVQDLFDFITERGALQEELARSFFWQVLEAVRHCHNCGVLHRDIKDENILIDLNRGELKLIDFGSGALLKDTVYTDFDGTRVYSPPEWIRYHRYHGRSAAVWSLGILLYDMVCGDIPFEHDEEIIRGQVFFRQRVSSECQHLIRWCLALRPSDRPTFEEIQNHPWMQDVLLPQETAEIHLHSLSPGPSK
T3 sequence (P31749 whole entry): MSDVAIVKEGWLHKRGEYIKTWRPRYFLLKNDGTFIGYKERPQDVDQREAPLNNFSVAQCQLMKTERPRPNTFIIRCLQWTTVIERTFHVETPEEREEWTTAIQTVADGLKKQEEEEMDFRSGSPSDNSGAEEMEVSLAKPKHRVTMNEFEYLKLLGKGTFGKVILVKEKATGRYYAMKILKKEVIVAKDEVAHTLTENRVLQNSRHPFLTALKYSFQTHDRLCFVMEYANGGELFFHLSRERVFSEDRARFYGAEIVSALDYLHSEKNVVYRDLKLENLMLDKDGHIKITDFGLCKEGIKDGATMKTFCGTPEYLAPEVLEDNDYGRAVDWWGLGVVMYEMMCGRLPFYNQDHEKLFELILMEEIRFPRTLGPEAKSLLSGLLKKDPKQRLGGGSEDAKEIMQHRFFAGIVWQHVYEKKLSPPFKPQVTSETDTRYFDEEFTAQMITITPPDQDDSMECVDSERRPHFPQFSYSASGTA
T2 sequence (P28482 whole entry): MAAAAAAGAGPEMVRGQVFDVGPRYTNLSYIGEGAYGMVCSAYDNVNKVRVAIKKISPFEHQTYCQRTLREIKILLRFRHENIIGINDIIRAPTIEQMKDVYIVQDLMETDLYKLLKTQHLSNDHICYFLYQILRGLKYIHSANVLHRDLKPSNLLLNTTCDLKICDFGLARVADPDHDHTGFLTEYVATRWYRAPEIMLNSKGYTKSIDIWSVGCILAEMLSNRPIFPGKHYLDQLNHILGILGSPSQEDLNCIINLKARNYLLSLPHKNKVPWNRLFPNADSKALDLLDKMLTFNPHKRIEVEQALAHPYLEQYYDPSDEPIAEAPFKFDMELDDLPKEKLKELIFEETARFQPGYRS
T4 sequence (P29597 whole entry): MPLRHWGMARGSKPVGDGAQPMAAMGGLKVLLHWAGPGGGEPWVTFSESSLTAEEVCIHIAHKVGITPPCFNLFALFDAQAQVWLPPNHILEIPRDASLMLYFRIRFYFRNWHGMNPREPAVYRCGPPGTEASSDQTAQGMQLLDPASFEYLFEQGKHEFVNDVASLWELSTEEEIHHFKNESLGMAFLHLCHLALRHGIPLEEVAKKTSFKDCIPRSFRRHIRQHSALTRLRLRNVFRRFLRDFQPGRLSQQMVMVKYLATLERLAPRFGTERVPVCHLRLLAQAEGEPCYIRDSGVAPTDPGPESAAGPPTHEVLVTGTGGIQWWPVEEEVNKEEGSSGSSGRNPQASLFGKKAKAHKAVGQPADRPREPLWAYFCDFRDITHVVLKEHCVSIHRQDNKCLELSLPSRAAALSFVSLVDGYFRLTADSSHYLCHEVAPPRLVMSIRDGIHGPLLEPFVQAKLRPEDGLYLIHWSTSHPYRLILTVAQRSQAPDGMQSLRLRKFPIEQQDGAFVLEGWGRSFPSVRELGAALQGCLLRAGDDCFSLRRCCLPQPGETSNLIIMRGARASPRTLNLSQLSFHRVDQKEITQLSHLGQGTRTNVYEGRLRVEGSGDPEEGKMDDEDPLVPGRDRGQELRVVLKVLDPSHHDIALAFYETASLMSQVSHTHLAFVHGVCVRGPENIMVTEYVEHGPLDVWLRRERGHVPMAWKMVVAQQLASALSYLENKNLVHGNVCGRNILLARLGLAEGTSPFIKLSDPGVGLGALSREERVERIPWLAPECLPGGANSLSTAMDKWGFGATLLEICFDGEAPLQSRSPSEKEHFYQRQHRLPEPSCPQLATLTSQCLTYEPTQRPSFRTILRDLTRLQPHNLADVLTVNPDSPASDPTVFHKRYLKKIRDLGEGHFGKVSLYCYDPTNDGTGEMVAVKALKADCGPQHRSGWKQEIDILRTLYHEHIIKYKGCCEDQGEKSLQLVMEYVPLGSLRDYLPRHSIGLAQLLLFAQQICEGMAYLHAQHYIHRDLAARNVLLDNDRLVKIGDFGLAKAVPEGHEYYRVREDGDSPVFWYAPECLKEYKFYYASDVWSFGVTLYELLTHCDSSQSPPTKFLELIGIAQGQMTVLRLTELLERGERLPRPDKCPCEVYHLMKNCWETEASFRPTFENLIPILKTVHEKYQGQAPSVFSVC
KDR, sequence (P35968 whole entry): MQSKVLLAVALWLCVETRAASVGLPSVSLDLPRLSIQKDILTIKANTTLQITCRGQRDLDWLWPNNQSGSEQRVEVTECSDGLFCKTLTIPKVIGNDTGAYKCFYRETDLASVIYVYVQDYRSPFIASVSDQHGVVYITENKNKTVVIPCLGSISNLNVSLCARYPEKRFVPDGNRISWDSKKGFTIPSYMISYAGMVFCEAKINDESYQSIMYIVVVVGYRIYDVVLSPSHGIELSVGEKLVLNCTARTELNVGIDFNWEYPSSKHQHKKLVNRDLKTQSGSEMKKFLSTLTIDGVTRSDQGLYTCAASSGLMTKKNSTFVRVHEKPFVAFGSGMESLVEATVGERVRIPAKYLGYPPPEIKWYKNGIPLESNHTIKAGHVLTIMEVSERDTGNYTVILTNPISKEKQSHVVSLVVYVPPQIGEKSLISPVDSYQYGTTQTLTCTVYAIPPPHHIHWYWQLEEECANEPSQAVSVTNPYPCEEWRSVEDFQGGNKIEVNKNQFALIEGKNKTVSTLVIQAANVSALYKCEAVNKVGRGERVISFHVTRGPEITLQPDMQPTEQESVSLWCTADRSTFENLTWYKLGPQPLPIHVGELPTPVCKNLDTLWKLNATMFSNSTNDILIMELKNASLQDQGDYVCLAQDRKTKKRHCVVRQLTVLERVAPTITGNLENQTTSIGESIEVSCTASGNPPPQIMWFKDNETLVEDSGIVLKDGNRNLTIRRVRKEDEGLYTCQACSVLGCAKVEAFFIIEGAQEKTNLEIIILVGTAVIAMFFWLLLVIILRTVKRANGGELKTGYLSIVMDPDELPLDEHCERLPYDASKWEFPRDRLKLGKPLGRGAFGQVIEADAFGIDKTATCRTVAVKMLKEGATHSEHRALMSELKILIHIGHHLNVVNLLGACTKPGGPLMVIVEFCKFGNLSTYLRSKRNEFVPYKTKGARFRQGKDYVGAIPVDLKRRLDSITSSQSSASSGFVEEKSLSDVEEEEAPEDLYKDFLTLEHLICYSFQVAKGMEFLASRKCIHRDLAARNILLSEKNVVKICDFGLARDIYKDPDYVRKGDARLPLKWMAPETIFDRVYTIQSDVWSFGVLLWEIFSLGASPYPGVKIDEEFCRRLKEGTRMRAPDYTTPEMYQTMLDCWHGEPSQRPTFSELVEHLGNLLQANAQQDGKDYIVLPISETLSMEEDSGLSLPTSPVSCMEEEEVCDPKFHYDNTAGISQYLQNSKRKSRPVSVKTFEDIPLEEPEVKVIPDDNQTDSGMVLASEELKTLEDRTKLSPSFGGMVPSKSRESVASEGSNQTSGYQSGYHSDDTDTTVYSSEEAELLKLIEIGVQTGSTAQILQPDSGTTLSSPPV

For the molecule `CC(C)(CO)Nc1ccc(C(=O)Nc2cccc(S(=O)(=O)C3CCCC3)c2)c(N2CCC3(CC2)CC3)n1` [AM-0277], the remaining activity at 1 µM at EPHB3 (setting [1]) was 87%; at ERK2 (setting [1]), 95%; at KDR (setting [1]), 90%; at MAPK4 (setting [1]) it was 98%; at PIM1 (setting [1]), 100%; at PKB α (setting [1]) it was 94%. Besides, the remaining activity at 1 µM at Tyk-2 (setting [1]) came to 100%.

On to `CC(C)(C)NS(=O)(=O)c1cccc(NC(=O)c2ccc(S(=O)(=O)NC(C)(C)C)cc2N2CCC3(CC2)CC3)c1` [AM-1882], for which the remaining activity at 1 µM worked out at 98% on EPHB3 (setting [2]); 100% at ERK2 (setting [2]); 80.5% on KDR (setting [2]); 99% on MAPK4 (setting [2]); 88.5% at PIM1 (setting [2]); 100% on PKB α (setting [2]). Moreover, the remaining activity at 1 µM on Tyk-2 (setting [2]) stood at 100%.

As to `C[C@@H]1CN(c2cccc(NC(=O)c3ccc(NS(=O)(=O)CCO)cc3N3CCC4(CC3)CC4)n2)CCO1` [AM-5308], the remaining activity at 1 µM worked out at 44% on EPHB3 (setting [3]); 89% at ERK2 (setting [3]); 53% at KDR (setting [3]); 81.5% on MAPK4 (setting [3]); 91% on PIM1 (setting [3]); 100% at PKB α (setting [3]). Besides, on Tyk-2 (setting [3]), the remaining activity at 1 µM turned out to be 84%.
